One assay deals with T1, MTNR1A (Homo sapiens, UniProt P48039).
T1 construct: purchased Eurofins DiscoverX (PathHunter gpcrMAX)
As to the kind of experiment: PathHunter β-arrestin assay. Format: cell-based. The settings on record: screen, control agonist; CHO, 37C, 2HR.

The subject of a further assay is CB1. Details: method as in PMID 20599795. The following applies: 10 nM, 15 min application; not recovered up to 5 h later; cited from earlier work.
A further assay has as its target HRH2 (Homo sapiens, UniProt P25021). As to the kind of experiment: PathHunter β-arrestin assay. Type of assay: cell-based. The settings on record: control agonist.
In a further assay the target is HRH4 (Homo sapiens, UniProt Q9H3N8). The settings on record: screen, control agonist; U20S, 37C, 4HR.
The target in another assay is OXTR (Homo sapiens, UniProt P30559). As to the kind of experiment: PathHunter β-arrestin assay. Type of assay: cell-based. The settings on record: follow-up assays, control antagonist.
A further assay deals with T2, LTB4R (Homo sapiens, UniProt Q15722).
T2 construct: purchased Eurofins DiscoverX (PathHunter gpcrMAX)
In words: PathHunter β-arrestin assay. Format: cell-based. The following applies: screen, control agonist; CHO, 37C, 2HR.

The next assay concerns the target HCRTR2 (Homo sapiens, UniProt O43614). As to the kind of experiment: PathHunter β-arrestin assay. Format: cell-based. The following applies: follow-up assays, control antagonist.
A further assay addresses T3, HCRTR1 (Homo sapiens, UniProt O43613).
T3 sequence (O43613 1-425): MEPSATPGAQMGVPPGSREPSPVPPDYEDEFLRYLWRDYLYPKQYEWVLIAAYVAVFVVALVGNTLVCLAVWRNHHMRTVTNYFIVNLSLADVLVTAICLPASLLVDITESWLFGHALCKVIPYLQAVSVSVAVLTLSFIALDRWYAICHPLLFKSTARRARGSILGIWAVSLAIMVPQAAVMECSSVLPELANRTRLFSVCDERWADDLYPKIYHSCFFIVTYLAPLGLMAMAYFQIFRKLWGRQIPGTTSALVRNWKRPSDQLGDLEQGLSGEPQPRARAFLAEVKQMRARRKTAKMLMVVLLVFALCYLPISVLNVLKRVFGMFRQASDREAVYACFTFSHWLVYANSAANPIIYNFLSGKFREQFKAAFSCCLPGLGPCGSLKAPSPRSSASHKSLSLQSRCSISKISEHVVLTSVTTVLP
As to the kind of experiment: PathHunter β-arrestin assay. Type of assay: cell-based. The settings on record: follow-up assays, control antagonist. How it is done:
Follow up experiments were prioritized based on the difference between S/N and CoV. Targets with a >5-fold difference between S/N and CoV were investigated for their potential contribution to the AMB-FUBINACA toxidrome with 10-point concentration-response curves generated in technical replicate (range 1.5–30 μM) using the EC80 of the relevant agonist, where applicable in antagonist mode. Simultaneous agonist and antagonist curves were run in parallel to ensure reliability of the assay (see Supplementary Table 2), with both RC50 and signal to background aligning with historical averages, and Z' >0.5. RC50 was estimated using a four-parameter fit (CBIS Data Analysis Suite, ChemInnovation, San Diego, CA) on normalized data.

The target of the next assay is UTR2 (Homo sapiens, UniProt Q9UKP6). In words: PathHunter β-arrestin assay. Format: cell-based. The settings on record: follow-up assays, control antagonist.
For another assay, the target named is T4, HTR2A (Homo sapiens, UniProt P28223).
T4 construct: purchased Eurofins DiscoverX (PathHunter gpcrMAX)
In words: PathHunter β-arrestin assay. Format: cell-based. The following applies: screen, control agonist; U20S, 37C, 2HR.

A further assay deals with T5, HTR1F (Homo sapiens, UniProt P30939).
T5 construct: purchased Eurofins DiscoverX (PathHunter gpcrMAX)
In words: PathHunter β-arrestin assay. Format: cell-based. The settings on record: screen, control agonist; U20S, 37C, 2HR.

Another assay deals with T6, HTR1B (Homo sapiens, UniProt P28222).
T6 construct: purchased Eurofins DiscoverX (PathHunter gpcrMAX)
In words: PathHunter β-arrestin assay. Format: cell-based. The following applies: screen, control agonist; U20S, 37C, 2HR.

For the next assay, the target named is T7, HTR1E (Homo sapiens, UniProt P28566).
T7 construct: purchased Eurofins DiscoverX (PathHunter gpcrMAX)
As to the kind of experiment: PathHunter β-arrestin assay. Format: cell-based. The following applies: screen, control agonist; U20S, 37C, 2HR.

A further assay has as its target T8, HTR1A (Homo sapiens, UniProt P08908).
T8 construct: purchased Eurofins DiscoverX (PathHunter gpcrMAX)
In words: PathHunter β-arrestin assay. Type of assay: cell-based. The following applies: screen, control agonist; CHO, 37C, 2HR.

A further assay deals with T9, HTR5A (Homo sapiens, UniProt P47898).
T9 construct: purchased Eurofins DiscoverX (PathHunter gpcrMAX)
As to the kind of experiment: PathHunter β-arrestin assay. Format: cell-based. The following applies: screen, control agonist; U20S, 37C, 2HR.

The target in a further assay is T10, ADORA3 (Homo sapiens, UniProt P0DMS8).
T10 construct: host or cells: CHO
In words: PathHunter β-arrestin assay. Type of assay: cell-based. The settings on record: follow-up assays, control antagonist.

As usually defined, the EC80 is the point of the concentration-response curve where the effect stands at 80%. A lower EC80 goes with an effect from little substance. In general, IC50 refers to the concentration that inhibits the measured activity by half. Higher therefore signals a need for much substance.

Chain of HRH2 (P25021 whole entry): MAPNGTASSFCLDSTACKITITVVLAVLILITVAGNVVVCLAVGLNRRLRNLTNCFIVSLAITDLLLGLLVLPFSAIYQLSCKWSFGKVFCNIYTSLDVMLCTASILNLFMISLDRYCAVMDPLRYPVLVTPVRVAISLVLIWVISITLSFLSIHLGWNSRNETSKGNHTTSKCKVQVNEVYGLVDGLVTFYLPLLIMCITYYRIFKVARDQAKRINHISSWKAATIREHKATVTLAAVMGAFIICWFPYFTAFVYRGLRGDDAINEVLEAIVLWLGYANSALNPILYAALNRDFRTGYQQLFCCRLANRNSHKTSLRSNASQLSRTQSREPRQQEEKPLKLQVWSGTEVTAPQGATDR
T2 sequence (Q15722 whole entry): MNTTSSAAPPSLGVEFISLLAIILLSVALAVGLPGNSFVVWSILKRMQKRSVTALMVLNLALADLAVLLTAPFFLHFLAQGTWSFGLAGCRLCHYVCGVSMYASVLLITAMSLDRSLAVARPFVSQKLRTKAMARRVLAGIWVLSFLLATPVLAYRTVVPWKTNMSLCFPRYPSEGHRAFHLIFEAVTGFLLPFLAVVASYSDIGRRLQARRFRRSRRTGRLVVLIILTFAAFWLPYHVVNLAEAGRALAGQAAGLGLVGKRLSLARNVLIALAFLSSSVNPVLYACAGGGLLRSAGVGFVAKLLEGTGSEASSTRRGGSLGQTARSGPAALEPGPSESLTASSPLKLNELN
T1 sequence (P48039 whole entry): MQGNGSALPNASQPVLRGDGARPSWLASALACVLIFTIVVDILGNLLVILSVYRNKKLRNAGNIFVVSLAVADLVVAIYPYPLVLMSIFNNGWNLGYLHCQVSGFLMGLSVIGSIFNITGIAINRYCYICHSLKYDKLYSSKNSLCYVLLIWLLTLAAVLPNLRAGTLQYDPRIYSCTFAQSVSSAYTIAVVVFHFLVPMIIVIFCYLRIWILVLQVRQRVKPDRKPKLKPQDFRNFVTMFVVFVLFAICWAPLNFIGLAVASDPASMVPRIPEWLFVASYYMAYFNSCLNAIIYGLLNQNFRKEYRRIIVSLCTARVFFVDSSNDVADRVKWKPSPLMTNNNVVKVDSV
T9 sequence (P47898 whole entry): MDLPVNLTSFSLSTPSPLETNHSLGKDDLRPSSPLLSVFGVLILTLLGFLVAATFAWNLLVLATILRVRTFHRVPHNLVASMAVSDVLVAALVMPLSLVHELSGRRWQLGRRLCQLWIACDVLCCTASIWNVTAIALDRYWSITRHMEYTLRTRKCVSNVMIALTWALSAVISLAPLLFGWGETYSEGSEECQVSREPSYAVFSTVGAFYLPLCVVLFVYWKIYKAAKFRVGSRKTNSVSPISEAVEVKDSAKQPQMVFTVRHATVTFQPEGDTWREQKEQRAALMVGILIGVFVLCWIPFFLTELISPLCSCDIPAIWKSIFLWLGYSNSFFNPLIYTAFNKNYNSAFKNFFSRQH
Chain of OXTR (P30559 whole entry): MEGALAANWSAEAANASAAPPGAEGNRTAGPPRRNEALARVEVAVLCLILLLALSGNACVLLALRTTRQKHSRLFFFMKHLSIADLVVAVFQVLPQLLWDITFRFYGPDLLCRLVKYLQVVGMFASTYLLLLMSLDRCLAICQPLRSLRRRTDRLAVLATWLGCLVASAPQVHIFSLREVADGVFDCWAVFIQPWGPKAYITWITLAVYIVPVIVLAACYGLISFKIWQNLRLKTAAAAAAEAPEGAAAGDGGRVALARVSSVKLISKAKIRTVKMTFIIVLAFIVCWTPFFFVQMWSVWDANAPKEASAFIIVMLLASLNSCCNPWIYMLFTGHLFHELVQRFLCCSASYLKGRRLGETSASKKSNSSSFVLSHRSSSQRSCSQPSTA
T8 sequence (P08908 whole entry): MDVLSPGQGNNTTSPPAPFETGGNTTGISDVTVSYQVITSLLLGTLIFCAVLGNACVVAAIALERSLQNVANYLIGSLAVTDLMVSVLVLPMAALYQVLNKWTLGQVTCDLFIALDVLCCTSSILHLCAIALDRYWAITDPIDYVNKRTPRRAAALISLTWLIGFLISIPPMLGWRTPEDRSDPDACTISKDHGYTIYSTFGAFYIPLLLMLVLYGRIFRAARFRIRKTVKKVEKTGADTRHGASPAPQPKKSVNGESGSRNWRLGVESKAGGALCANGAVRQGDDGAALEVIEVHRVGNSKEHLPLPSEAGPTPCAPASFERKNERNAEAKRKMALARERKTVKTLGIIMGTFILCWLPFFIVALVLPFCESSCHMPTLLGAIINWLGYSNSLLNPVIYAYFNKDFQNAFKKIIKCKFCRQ
T10 sequence (P0DMS8 whole entry): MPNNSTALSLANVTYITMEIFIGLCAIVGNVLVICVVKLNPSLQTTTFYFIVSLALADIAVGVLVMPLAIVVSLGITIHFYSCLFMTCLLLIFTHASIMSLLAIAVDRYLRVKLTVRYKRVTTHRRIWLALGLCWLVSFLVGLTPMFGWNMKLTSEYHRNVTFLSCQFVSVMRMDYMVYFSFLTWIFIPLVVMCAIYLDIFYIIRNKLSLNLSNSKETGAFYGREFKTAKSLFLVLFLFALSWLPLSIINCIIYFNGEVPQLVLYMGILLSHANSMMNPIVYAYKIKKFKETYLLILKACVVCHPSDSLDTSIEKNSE
T7 sequence (P28566 whole entry): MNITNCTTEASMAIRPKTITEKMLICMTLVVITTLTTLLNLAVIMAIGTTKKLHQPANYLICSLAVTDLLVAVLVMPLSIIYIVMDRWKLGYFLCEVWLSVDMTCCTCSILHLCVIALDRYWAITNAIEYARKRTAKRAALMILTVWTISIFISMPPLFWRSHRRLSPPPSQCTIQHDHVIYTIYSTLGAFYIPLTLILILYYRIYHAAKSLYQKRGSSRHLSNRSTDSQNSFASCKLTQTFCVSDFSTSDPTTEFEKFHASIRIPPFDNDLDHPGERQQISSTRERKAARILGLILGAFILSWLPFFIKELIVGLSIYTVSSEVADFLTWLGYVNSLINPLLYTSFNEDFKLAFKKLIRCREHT
T5 sequence (P30939 whole entry): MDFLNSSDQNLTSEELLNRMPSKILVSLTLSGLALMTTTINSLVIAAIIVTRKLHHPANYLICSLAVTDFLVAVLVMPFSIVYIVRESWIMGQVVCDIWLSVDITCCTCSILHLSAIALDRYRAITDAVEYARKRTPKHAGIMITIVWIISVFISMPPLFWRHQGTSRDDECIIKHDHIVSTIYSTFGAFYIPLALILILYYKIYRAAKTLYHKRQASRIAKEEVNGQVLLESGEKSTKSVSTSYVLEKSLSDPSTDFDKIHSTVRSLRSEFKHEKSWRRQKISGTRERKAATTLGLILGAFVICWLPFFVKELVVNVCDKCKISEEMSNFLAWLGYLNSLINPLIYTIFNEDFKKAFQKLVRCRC
Chain of HRH4 (Q9H3N8 whole entry): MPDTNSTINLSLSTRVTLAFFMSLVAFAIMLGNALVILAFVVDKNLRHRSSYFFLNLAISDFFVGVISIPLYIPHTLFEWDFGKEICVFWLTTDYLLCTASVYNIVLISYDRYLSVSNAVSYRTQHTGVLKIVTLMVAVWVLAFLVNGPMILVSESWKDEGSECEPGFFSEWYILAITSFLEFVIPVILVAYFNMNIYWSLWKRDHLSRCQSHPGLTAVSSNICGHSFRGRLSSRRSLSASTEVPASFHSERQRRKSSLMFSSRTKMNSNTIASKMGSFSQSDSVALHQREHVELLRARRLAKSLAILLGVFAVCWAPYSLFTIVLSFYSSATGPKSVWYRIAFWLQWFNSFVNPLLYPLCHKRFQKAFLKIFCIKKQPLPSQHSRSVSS
Chain of HCRTR2 (O43614 whole entry): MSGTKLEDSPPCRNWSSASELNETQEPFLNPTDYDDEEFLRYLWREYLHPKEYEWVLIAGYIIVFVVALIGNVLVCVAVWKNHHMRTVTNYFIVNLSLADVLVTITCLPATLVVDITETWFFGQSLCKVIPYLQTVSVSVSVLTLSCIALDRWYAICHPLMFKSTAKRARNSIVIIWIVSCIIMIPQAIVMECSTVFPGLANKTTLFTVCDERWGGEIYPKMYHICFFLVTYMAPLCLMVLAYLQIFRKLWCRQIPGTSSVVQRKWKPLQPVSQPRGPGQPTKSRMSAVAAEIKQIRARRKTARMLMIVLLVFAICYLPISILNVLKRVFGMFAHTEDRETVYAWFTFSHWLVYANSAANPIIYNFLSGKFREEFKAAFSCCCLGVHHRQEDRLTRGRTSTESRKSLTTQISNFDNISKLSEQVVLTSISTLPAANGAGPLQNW
T4 sequence (P28223 whole entry, looked up): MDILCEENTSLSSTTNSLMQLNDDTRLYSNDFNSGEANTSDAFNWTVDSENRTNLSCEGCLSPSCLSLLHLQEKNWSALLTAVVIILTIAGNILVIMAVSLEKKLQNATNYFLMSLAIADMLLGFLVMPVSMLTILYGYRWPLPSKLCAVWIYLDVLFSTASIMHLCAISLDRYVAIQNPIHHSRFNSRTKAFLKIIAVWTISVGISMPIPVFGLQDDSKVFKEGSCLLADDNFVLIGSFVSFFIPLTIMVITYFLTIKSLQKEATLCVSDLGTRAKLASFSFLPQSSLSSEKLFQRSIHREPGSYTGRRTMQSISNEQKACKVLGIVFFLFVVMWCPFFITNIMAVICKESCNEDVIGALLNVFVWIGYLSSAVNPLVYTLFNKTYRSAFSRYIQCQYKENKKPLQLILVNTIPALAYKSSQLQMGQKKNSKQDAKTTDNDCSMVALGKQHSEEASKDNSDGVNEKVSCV

Take `COc1ccc2[nH]c(I)c(CCNC(C)=O)c2c1` [2-Iodomelatonin]: at MTNR1A, the EC80 amounted to 2.77 nM.
Regarding `CCCCCCC(C)(C)c1cc(O)c2c(c1)OC(C)(C)[C@@H]1CC=C(CO)C[C@@H]21` [HU210], the CB1 internalization entry with CB1 is given as “near maximal internalization”.
Take `NCCc1c[nH]cn1` [Histamine]: the EC80 stood at 10722 nM on HRH2 (follow-up concentration-response assays); 10700 nM on HRH2 (screen, CHO, RT, 2HR); 102 nM on HRH4.
`Cc1ccccc1N1CCN(S(=O)(=O)C[C@]23CC[C@H](C[C@@H]2NC(=O)[C@@H](N)CCS(C)(=O)=O)C3(C)C)CC1` [L-368,899] yielded a half-maximal inhibitory concentration (IC50) against OXTR of 7.39 nM.
As for `CCCCC/C=C\C[C@@H](O)/C=C/C=C/C=C\[C@@H](O)CCCC(=O)O` [Leukotriene B4], the EC80 on LTB4R worked out at 456 nM.
Consider `Cc1cc(NC(=O)Nc2ccc(N(C)C)cc2)c2cc(F)cc(F)c2n1` [SB 408124], for which the IC50 at HCRTR2 was determined as 11500 nM; against HCRTR1, 74.4 nM.
`COc1cc(Br)c(S(=O)(=O)Nc2ccc(Cl)c(O[C@@H]3CCN(C)C3)c2)cc1OC` [SB 657510]: the IC50 on UTR2 was 122 nM.
On to `NCCc1c[nH]c2ccc(O)cc12` [Serotonin / 5-HT, Serotonin], for which the concentration for an effect of 80% (EC80) on HTR2A came to 171 nM; at HTR1F it was 127 nM; at HTR1B it was 173 nM; on HTR1E, 21.6 nM; on HTR1A it was 377 nM; on HTR5A, 26.4 nM.
Regarding `COc1ccccc1NC(=O)Nc1nc(-c2cccnc2)nc2ccccc12` [VUF 5574], on ADORA3, it took 3.73 nM to reach half-maximal inhibition (IC50).
